# Reference: patent US20080242590A1, “New Method 706” (ASTRAZENECA AB, priority 2007, published 2008)
# Legend:
# Type in all cases: biochemical
# [1] = system: amyloid β peptide 1-40 (Aβ40); test: Degradation of Aβ40 in human plasma (Example 18); details: 10 μM phosphoramidon
# Procedure: Blood from eight individuals (5 females and 3 males) were collected into pre-chilled heparin-plasma tubes at the healthcare centre (AstraZeneca) at two different time points. Plasma was prepared by centrifugation for 20 min at 4° C. at 2500×g within 30 minutes of sampling. Plasma samples were transferred to pre-chilled polypropylene tubes and immediately frozen and stored at −70° C. prior to use. His-Fc-Nep (6 μg/ml) or 5 μg/ml recombinant human Neprilysin (R&D systems) with corresponding vehicles (50 mM Tris-HCl, 150 mM NaCl pH 7.5 or 25 mM Tris-HCl, 0.1 M NaCl pH 8.0) in presence or absence of 10 μM phosphoramidon was incubated with a pool of plasma at 37° C. for 0 and 4 h. A final concentration of 4.7 mM EDTA was added into the tubes before the amount of Aβ40 was analysed using a commercial ELISA kit obtained from Biosource. His-Fc-Nep (6 μg/ml) and commercial human recombinant neprilysin (5 μg/ml) degraded Aβ40 with 33% and 70%, respectively, compared to vehicle after 4 hours incubation at 37° C. The Aβ40 levels were unaffected after addition of 10 μM phosphoramidon (FIG. 4).
# [2] = system: amyloid β peptide 1-42 (Aβ42); test: Ex-vivo degradation of Aβ42 in guinea pig plasma; details: 10 μM, combined with 208 μg/ml His-Fc-Nep
# Procedure: (§1) Degradation of amyloid β peptide 1-40 (Aβ40) and amyloid β peptide 1-42 (Aβ42) by neprilysin was investigated using heparinized plasma from male Dunkin Hartley guinea pigs, weighing 250-300 g (HBLidkoping ka). Blood was withdrawn from anaesthetized guinea pigs by heart puncture. The blood were collected into prechilled heparin-plasma tubes and centrifuged for 10 min at 4° C. at 3000×g within 20 minutes of sampling. Plasma samples were transferred to pre-chilled polypropylene tubes and immediately frozen on dry ice and stored at −70° C. prior to use. The experiments were performed on a pool of plasma from seven guinea pigs. His-Fc-Nep (6 μg/ml or 208 μg/ml) or 5 μg/ml recombinant human Neprilysin (R&D systems) with corresponding vehicles (50 mM Tris-HCl, 150 mM NaCl pH 7.5 or 25 mM Tris-HCl, 0.1 M NaCl pH 8.0) were incubated with a pool of plasma in presence or absence of 10 μM phosphoramidon (BIOMOL) at 37° C. for 0 and 4 h. A final concentration of 4.7 mM EDTA was added into the tubes before the amount of Aβ40 and Aβ42 was analysed using a commercial ELISA kit obtained from Biosource (Aβ1-40) or Innogenetics (Aβ1-42).
# [3] = system: amyloid β peptide 1-40 (Aβ40); test: Ex-vivo degradation of Aβ40 in guinea pig plasma; details: 10 μM phosphoramidon
# Procedure: as §1
# [4] = system: amyloid β 1-40 peptide; test: Degradation of amyloid β 1-40 peptide by Fc-Neprilysin and Neprilysin in buffer; details: 10 μM Phosphoramidone
# Procedure: The assay is measuring the remaining amyloid β 1-40 peptide (Bachem) concentration following its incubation in the presence of Neprilysin (R&D Systems) or Fc-Neprilysin with or without Neprilysin inhibitor. 100 μl of reaction mixture containing amyloid β 1-40 peptide (final concentrations, 300, 30 or 3 nM) and/or Neprilysin (2.4 μg/ml), and/or Fc-Neprilysin construct (2.4 μg/ml), and/or Phosphoramidone (10 μM) was incubated in a round bottom 96-well polypropylene plate at 37° C. for 2.5 hours. Following incubation, 10 μl of reaction mixture was transferred into Thermo-Fast© 96-well PCR plate (Abgene, UK) containing 10 μl of Standard Diluent (Gyros AB). Amyloid β 1-40 concentration was determined using Gyrolab Workstation LIF system. Biotinylated anti-amyloid β antibodies (6E10; final concentration 50 μg/ml; Signet) were used as capturing antibodies and polyclonal anti-human amyloid β antibodies (44-348; Biosource) labeled with Alexa Fluor 647 dye (Molecular probes) were used as detection antibodies. […] Amyloid β 1-40 peptide degradation by Neprilysin was calculated as a percentage of Amyloid β 1-40 peptide left after incubation in the presence of Neprilysin compared to the amyloid β 1-40 peptide concentration in the absence of Neprilysin.
structure (smiles),measurement,setting,value
"CC(C)C[C@H](NP(=O)(O)O[C@@H]1O[C@@H](C)[C@H](O)[C@@H](O)[C@H]1O)C(=O)N[C@@H](Cc1c[nH]c2ccccc12)C(=O)O [Phosphoramidone, reference compound]",Aβ40 levels after addition of inhibitor to the enzyme incubation,[1],unaffected
same,Inhibition of the Aβ42 reduction by phosphoramidon,[2],not inhibited
same,Aβ40 levels after addition of inhibitor to the enzyme incubation,[3],unaffected
same,Specific Neprilysin activity in the presence of inhibitor,[4],almost completely abolished
